Like-named read-outs stand apart in the source and are kept apart here.
Legend:
Test in all cases: MIC, broth microdilution (CLSI), substance alone or ATB combined with compound at 4 or 8 μg/mL
ECL P99 = type: cell-based, E. cloacae; settings: ECL P99; for MIC: Enterobacter cloacae
In short: (§1)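 Antibiotic MICs were determined in presence of fixed compound at 4 or 8 μg/mL, and compound MICs alone, by visual growth inhibition. Inoculum 5·10^5 CFU/mL in ca-MHB, incubated 35 °C for 16-20 h per CLSI-M7-A7. Glucose-6-phosphate (25 μg/ml) added when fosfomycin was tested.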

SPN 49619 = type: cell-based, S. pneumoniae; settings: SPN 49619
In short: as §1

PAE UFR48 = type: cell-based, P. aeruginosa; settings: PAE UFR48
In short: as §1

PAE 105250 = type: cell-based, P. aeruginosa; settings: PAE 105250
In short: as §1

PAE UFR90 = type: cell-based, P. aeruginosa; settings: PAE UFR90
In short: as §1

SAU 29213 = type: cell-based, S. aureus; settings: SAU 29213
In short: as §1

**Q.** How did the “MIC ATB combined with Example 1 @8 μg/ml” value (ECL P99; with Example 1 at 8 μg/ml) turn out when `COCC1=C(C(=O)O)N2C(=O)[C@@H](NC(=O)/C(=N\OC)c3csc(N)n3)[C@H]2SC1` [POD, Cefpodoxime, reference compound] was run?
**A.** The value was “<=0.031 μg/mL”.

**Q.** And the “MIC ATB combined with Example 7 @8 μgml” value (ECL P99; with Example 7 at 8 μg/ml)?
**A.** The value was 16 mg/L.

**Q.** And the “MIC ATB combined with Example 9 @4 μg/ml” value (ECL P99; with Example 9 at 4 μg/ml)?
**A.** The value was <0.031 mg/L.

**Q.** What about the “MIC ATB combined with Example 11 @8 μg/ml” value (ECL P99; with Example 11 at 8 μg/ml) of the same compound?
**A.** The value was <0.031 mg/L.

**Q.** What about the “MIC ATB combined with Example 12 @8 μg/ml” value (ECL P99; with Example 12 at 8 μg/ml) of the same compound?
**A.** The value was <0.031 mg/L.

**Q.** What about the “MIC ATB combined with Example 13 @8 μg/ml” value (ECL P99; with Example 13 at 8 μg/ml) of the same compound?
**A.** The value was 4 mg/L.

**Q.** And the “MIC ATB combined with Example 14 @8 μg/ml” value (ECL P99; with Example 14 at 8 μg/ml)?
**A.** Its value is <0.031 mg/L.

**Q.** What about the “MIC ATB combined with Example 15 @4 μgml” value (ECL P99; with Example 15 at 4 μg/ml) of the same compound?
**A.** Its value is <0.031 mg/L.

**Q.** And the “MIC ATB combined with Example 16 @4 μg/ml” value (ECL P99; with Example 16 at 4 μg/ml)?
**A.** The value was <0.031 mg/L.

**Q.** And the MIC (ECL P99; antibiotic alone, read-out: MIC ATB alone)?
**A.** The MIC was > 512 mg/L.

**Q.** And the MIC (ECL P99; substance alone, read-out: MIC)?
**A.** The MIC was > 512 mg/L.

**Q.** What about the “MIC ATB combined with Example 1 @8 μg/ml” value (SPN 49619; with Example 1 at 8 μg/ml) of the same compound?
**A.** The value was 0.063 mg/L.

**Q.** What about the “MIC ATB combined with Example 7 @8 μgml” value (SPN 49619; with Example 7 at 8 μg/ml) of the same compound?
**A.** Its value is 0.063 mg/L.

**Q.** What about the “MIC ATB combined with Example 9 @4 μg/ml” value (SPN 49619; with Example 9 at 4 μg/ml) of the same compound?
**A.** Its value is <0.031 mg/L.

**Q.** What about the “MIC ATB combined with Example 11 @8 μg/ml” value (SPN 49619; with Example 11 at 8 μg/ml) of the same compound?
**A.** The value was “<=0.031 μg/mL”.

**Q.** And the “MIC ATB combined with Example 12 @8 μg/ml” value (SPN 49619; with Example 12 at 8 μg/ml)?
**A.** The value was <0.031 mg/L.

**Q.** And the “MIC ATB combined with Example 13 @8 μg/ml” value (SPN 49619; with Example 13 at 8 μg/ml)?
**A.** The value was 0.063 mg/L.

**Q.** What about the “MIC ATB combined with Example 14 @8 μg/ml” value (SPN 49619; with Example 14 at 8 μg/ml) of the same compound?
**A.** Its value is <0.031 mg/L.

**Q.** And the “MIC ATB combined with Example 15 @4 μgml” value (SPN 49619; with Example 15 at 4 μg/ml)?
**A.** The value was “<=0.031 μg/mL”.

**Q.** What about the “MIC ATB combined with Example 16 @4 μg/ml” value (SPN 49619; with Example 16 at 4 μg/ml) of the same compound?
**A.** Its value is <0.031 mg/L.

**Q.** And the MIC (SPN 49619; Streptococcus pneumoniae, antibiotic alone, read-out: MIC ATB alone)?
**A.** The MIC was 0.063 mg/L.

**Q.** And the “MIC ATB combined with Example 1 @8 μg/ml” value (PAE UFR48; with Example 1 at 8 μg/ml)?
**A.** The value was <0.031 mg/L.

**Q.** What about the “MIC ATB combined with Example 7 @8 μgml” value (PAE UFR48; with Example 7 at 8 μg/ml) of the same compound?
**A.** Its value is >32 mg/L.

**Q.** What about the “MIC ATB combined with Example 9 @4 μg/ml” value (PAE UFR48; with Example 9 at 4 μg/ml) of the same compound?
**A.** The value was >32 mg/L.

**Q.** And the “MIC ATB combined with Example 11 @8 μg/ml” value (PAE UFR48; with Example 11 at 8 μg/ml)?
**A.** Its value is >32 mg/L.

**Q.** What about the “MIC ATB combined with Example 12 @8 μg/ml” value (PAE UFR48; with Example 12 at 8 μg/ml) of the same compound?
**A.** Its value is >32 mg/L.

**Q.** And the “MIC ATB combined with Example 13 @8 μg/ml” value (PAE UFR48; with Example 13 at 8 μg/ml)?
**A.** Its value is >32 mg/L.

**Q.** And the “MIC ATB combined with Example 14 @8 μg/ml” value (PAE UFR48; with Example 14 at 8 μg/ml)?
**A.** Its value is >32 mg/L.

**Q.** What about the “MIC ATB combined with Example 15 @4 μgml” value (PAE UFR48; with Example 15 at 4 μg/ml) of the same compound?
**A.** The value was >32 mg/L.

**Q.** And the “MIC ATB combined with Example 16 @4 μg/ml” value (PAE UFR48; with Example 16 at 4 μg/ml)?
**A.** Its value is >32 mg/L.

**Q.** And the “MIC ATB combined with Example 1 @8 μg/ml” value (PAE 105250; with Example 1 at 8 μg/ml)?
**A.** Its value is 0.125 mg/L.

**Q.** What about the “MIC ATB combined with Example 7 @8 μgml” value (PAE 105250; with Example 7 at 8 μg/ml) of the same compound?
**A.** Its value is >32 mg/L.

**Q.** And the “MIC ATB combined with Example 9 @4 μg/ml” value (PAE 105250; with Example 9 at 4 μg/ml)?
**A.** The value was >32 mg/L.

**Q.** And the “MIC ATB combined with Example 11 @8 μg/ml” value (PAE 105250; with Example 11 at 8 μg/ml)?
**A.** The value was >32 mg/L.

**Q.** What about the “MIC ATB combined with Example 12 @8 μg/ml” value (PAE 105250; with Example 12 at 8 μg/ml) of the same compound?
**A.** Its value is >32 mg/L.

**Q.** What about the “MIC ATB combined with Example 13 @8 μg/ml” value (PAE 105250; with Example 13 at 8 μg/ml) of the same compound?
**A.** Its value is >32 mg/L.

**Q.** And the “MIC ATB combined with Example 14 @8 μg/ml” value (PAE 105250; with Example 14 at 8 μg/ml)?
**A.** The value was >32 mg/L.

**Q.** What about the “MIC ATB combined with Example 15 @4 μgml” value (PAE 105250; with Example 15 at 4 μg/ml) of the same compound?
**A.** The value was >32 mg/L.

**Q.** What about the “MIC ATB combined with Example 16 @4 μg/ml” value (PAE 105250; with Example 16 at 4 μg/ml) of the same compound?
**A.** Its value is >32 mg/L.

**Q.** And the MIC (PAE 105250; Pseudomonas aeruginosa, antibiotic alone, read-out: MIC ATB alone)?
**A.** Its MIC is > 512 mg/L.

**Q.** And the “MIC ATB combined with Example 1 @8 μg/ml” value (PAE UFR90; with Example 1 at 8 μg/ml)?
**A.** The value was <0.031 mg/L.

**Q.** And the “MIC ATB combined with Example 7 @8 μgml” value (PAE UFR90; with Example 7 at 8 μg/ml)?
**A.** The value was >32 mg/L.

**Q.** And the “MIC ATB combined with Example 9 @4 μg/ml” value (PAE UFR90; with Example 9 at 4 μg/ml)?
**A.** The value was >32 mg/L.

**Q.** And the “MIC ATB combined with Example 11 @8 μg/ml” value (PAE UFR90; with Example 11 at 8 μg/ml)?
**A.** The value was >32 mg/L.

**Q.** What about the “MIC ATB combined with Example 12 @8 μg/ml” value (PAE UFR90; with Example 12 at 8 μg/ml) of the same compound?
**A.** The value was >32 mg/L.

**Q.** What about the “MIC ATB combined with Example 13 @8 μg/ml” value (PAE UFR90; with Example 13 at 8 μg/ml) of the same compound?
**A.** Its value is >32 mg/L.

**Q.** What about the “MIC ATB combined with Example 14 @8 μg/ml” value (PAE UFR90; with Example 14 at 8 μg/ml) of the same compound?
**A.** Its value is >32 mg/L.

**Q.** And the “MIC ATB combined with Example 15 @4 μgml” value (PAE UFR90; with Example 15 at 4 μg/ml)?
**A.** The value was >32 mg/L.

**Q.** And the “MIC ATB combined with Example 16 @4 μg/ml” value (PAE UFR90; with Example 16 at 4 μg/ml)?
**A.** Its value is >32 mg/L.

**Q.** And the “MIC ATB combined with Example 1 @8 μg/ml” value (SAU 29213; with Example 1 at 8 μg/ml)?
**A.** The value was 4 mg/L.

**Q.** And the “MIC ATB combined with Example 7 @8 μgml” value (SAU 29213; with Example 7 at 8 μg/ml)?
**A.** Its value is 2 mg/L.

**Q.** What about the “MIC ATB combined with Example 9 @4 μg/ml” value (SAU 29213; with Example 9 at 4 μg/ml) of the same compound?
**A.** Its value is “<=0.031 μg/mL”.

**Q.** And the “MIC ATB combined with Example 11 @8 μg/ml” value (SAU 29213; with Example 11 at 8 μg/ml)?
**A.** The value was <0.031 mg/L.

**Q.** What about the “MIC ATB combined with Example 12 @8 μg/ml” value (SAU 29213; with Example 12 at 8 μg/ml) of the same compound?
**A.** The value was <0.031 mg/L.

**Q.** And the “MIC ATB combined with Example 13 @8 μg/ml” value (SAU 29213; with Example 13 at 8 μg/ml)?
**A.** The value was 2 mg/L.

**Q.** What about the “MIC ATB combined with Example 14 @8 μg/ml” value (SAU 29213; with Example 14 at 8 μg/ml) of the same compound?
**A.** The value was <0.031 mg/L.
